# The source made the active and inactive calls. No cut-off for these calls is given here.
# Assays:
# [1] = Octanol-water partition coefficient, log P of the compound at 1 mg by RP-HPLC analysis; assay type: physicochemical
# SK-N-BE(2)-M17 [2] = experiment: Cytoprotection against PQ-induced cell death in human SK-N-BE(2)-M17 cells assessed as increase in cell viability at 100 uM pretreated for 2 hrs followed by 1 mM PQ addition measured after 24 hrs by MTT assay; assay type: functional, cell-based
# SK-N-BE(2)-M17 [3] = experiment: Cytoprotection against PQ-induced cell death in human SK-N-BE(2)-M17 cells assessed as increase in cell viability at 100 uM pretreated for 2 hrs followed by 1 mM PQ addition measured after 24 hrs by LDH assay; assay type: functional, cell-based
# SK-N-BE(2)-M17 [4] = experiment: Cytoprotection against H2O2-induced cell death in human SK-N-BE(2)-M17 cells assessed as increase in cell viability at 100 uM pretreated for 2 hrs followed by 1 mM H2O2 addition measured after 24 hrs by MTT assay; assay type: functional, cell-based
# SK-N-BE(2)-M17 [5] = experiment: Cytoprotection against H2O2-induced cell death in human SK-N-BE(2)-M17 cells assessed as increase in cell viability at 100 uM pretreated for 2 hrs followed by 1 mM H2O2 addition measured after 24 hrs by LDH assay; assay type: functional, cell-based
# SK-N-BE(2)-M17 [6] = experiment: Cytoprotection against PQ-induced cell death in human SK-N-BE(2)-M17 cells assessed as increase in cell viability at 100 uM treated 2 hrs post 2 mM PQ treatment measured after 24 hrs by MTT assay; assay type: functional, cell-based
# SK-N-BE(2)-M17 [7] = experiment: Cytoprotection against H2O2-induced cell death in human SK-N-BE(2)-M17 cells assessed as increase in cell viability at 100 uM treated 2 hrs post 0.8 mM H2O2 treatment measured after 24 hrs by MTT assay; assay type: functional, cell-based
# SK-N-BE(2)-M17 [8] = experiment: Cytoprotection against PQ-induced cell death in human SK-N-BE(2)-M17 cells assessed as increase in cell viability treated 2 hrs post 2 mM PQ treatment measured after 24 hrs by MTT assay; assay type: functional, cell-based
# SK-N-BE(2)-M17 [9] = experiment: Cytoprotection against PQ-induced cell death in human SK-N-BE(2)-M17 cells assessed as increase in cell viability at 100 uM treated post 200 uM Fecl3 and 1 mM PQ treatment measured after 24 hrs by MTT assay; assay type: functional, cell-based
# SK-N-BE(2)-M17 [10] = experiment: Cytoprotection against PQ-induced cell death in human SK-N-BE(2)-M17 cells assessed as increase in cell viability at 100 uM treated post 200 uM Fecl3 and 1 mM PQ treatment measured after 24 hrs by LDH assay; assay type: functional, cell-based
# Astrocyte [11] = experiment: Cytoprotection against H2O2-induced cell death in BSO pretreated C57BL6/J mouse brain primary astrocytes assessed as increase in cell viability at 10 uM pretreated for 2 hrs followed by H2O2 addition measured after 24 hrs by MTT assay; assay type: functional, cell-based
# Astrocyte [12] = experiment: Cytoprotection against H2O2-induced cell death in BSO pretreated C57BL6/J mouse brain primary astrocytes assessed as increase in cell viability at 10 uM pretreated for 2 hrs followed by H2O2 addition measured after 24 hrs by LDH release assay; assay type: functional, cell-based
# SK-N-BE(2)-M17 [13] = experiment: Cytotoxicity against human SK-N-BE(2)-M17 cells at 100 uM 24 hrs by MTT assay; assay type: cell-based; conditions: sk-n-be(2)-m17, 24 h
# SK-N-BE(2)-M17 [14] = experiment: Cytotoxicity against human SK-N-BE(2)-M17 cells at 100 uM 24 hrs by LDH release assay; assay type: cell-based; conditions: sk-n-be(2)-m17, 24 h
# [15] = Binding affinity to Fe3+ assessed as [M+H]+ adduct formation by LC-MS/MS analysis
# [16] = Binding affinity to Fe3+ assessed as [M+2H]+ adduct formation by LC-MS/MS analysis
# [17] = Binding affinity to Fe3+ assessed as change in retention time for compound-Fe3+ complex by RP-HPLC analysis relative to free ligand
# SK-N-BE(2)-M17 [18] = experiment: Cytoprotection against PQ-induced cell death in human SK-N-BE(2)-M17 cells assessed as increase in cell viability at 100 uM treated 2 hrs post 2 mM PQ treatment measured after 24 hrs by LDH assay; assay type: functional, cell-based
# SK-N-BE(2)-M17 [19] = experiment: Cytoprotection against H2O2-induced cell death in human SK-N-BE(2)-M17 cells assessed as increase in cell viability at 100 uM treated 2 hrs post 0.8 mM H2O2 treatment measured after 24 hrs by LDH assay; assay type: functional, cell-based
logP [1],Activity [15],Activity [16],Retention time [17] [min],SMILES,Activity (SK-N-BE(2)-M17 [2]),Activity (SK-N-BE(2)-M17 [3]),Activity (SK-N-BE(2)-M17 [4]),Activity (SK-N-BE(2)-M17 [5]),Activity (SK-N-BE(2)-M17 [6]),Activity (SK-N-BE(2)-M17 [7]),EC50 (SK-N-BE(2)-M17 [8]) [µM],Activity (SK-N-BE(2)-M17 [9]),Activity (SK-N-BE(2)-M17 [10]),Activity (Astrocyte [11]),Activity (Astrocyte [12]),Activity (SK-N-BE(2)-M17 [13]),Activity (SK-N-BE(2)-M17 [14]),Activity (SK-N-BE(2)-M17 [18]),Activity (SK-N-BE(2)-M17 [19])
2.07,Active,Active,1.06,CC(=O)N(O)CCCCCNC(=O)CCC(=O)N(O)CCCCCNC(=O)CCC(=O)N(O)CCCCCNC(=O)C12CC3CC(C)(CC(C)(C3)C1)C2,Active,Active,Active,Active,Active,Active,9.8,Active,Active,Active,Active,Non-Toxic,Non-Toxic,–,–
0.15,Active,Active,-0.52,CC(=O)N(O)CCCCCNC(=O)CCC(=O)N(O)CCCCCNC(=O)CCC(=O)N(O)CCCCCNC(=O)CC12CC3CC(CC(O)(C3)C1)C2,Active,Active,Active,Active,–,–,–,–,–,–,–,Non-Toxic,Non-Toxic,–,–
1.87,Active,Active,0.65,CC(=O)N(O)CCCCCNC(=O)CCC(=O)N(O)CCCCCNC(=O)CCC(=O)N(O)CCCCCNC(=O)C1CC2CCCC(C2)C1 (stereo not given),inactive,inactive,inactive,inactive,inactive,inactive,–,Active,Active,Active,Active,Non-Toxic,Non-Toxic,inactive,inactive
0.55,Active,Active,0.08,CC(=O)N(O)CCCCCNC(=O)CCC(=O)N(O)CCCCCNC(=O)CCC(=O)N(O)CCCCCNC(=O)[C@H]1C[C@H]2CC[C@H]1C2 (relative stereo),Active,Active,Active,Active,Active,Active,–,Active,Active,–,–,Non-Toxic,Non-Toxic,Active,Active
0.98,Active,Active,0.48,CC(=O)N(O)CCCCCNC(=O)CCC(=O)N(O)CCCCCNC(=O)CCC(=O)N(O)CCCCCNC(=O)C12CC3CC(CC1C3)C2,Active,Active,Active,Active,Active,Active,30,Active,–,Active,–,Non-Toxic,Non-Toxic,–,–
0.5 to 1.4,Active,Active,-0.52 to 0,CC(=O)N(O)CCCCCNC(=O)CCC(=O)N(O)CCCCCNC(=O)CCC(=O)N(O)CCCCCNC(=O)[C@H]1C[C@H]2C=C[C@H]1C2,Active,Active,Active,Active,Active,Active,–,Active,Active,–,–,Non-Toxic,Non-Toxic,Active,Active
1.84,Active,Active,0.83,CC(=O)N(O)CCCCCNC(=O)CCC(=O)N(O)CCCCCNC(=O)CCC(=O)N(O)CCCCCNC(=O)C12CC3CC(CC(Cl)(C3)C1)C2,inactive,inactive,inactive,inactive,inactive,inactive,–,Active,–,Active,Active,Non-Toxic,Non-Toxic,inactive,inactive
1.84,Active,Active,1.09,CC(=O)N(O)CCCCCNC(=O)CCC(=O)N(O)CCCCCNC(=O)CCC(=O)N(O)CCCCCNC(=O)CC12CC3CC(CC(Br)(C3)C1)C2,inactive,inactive,inactive,inactive,inactive,inactive,–,–,–,–,–,Non-Toxic,Non-Toxic,inactive,inactive
2.09,Active,Active,1.71,CC(=O)N(O)CCCCCNC(=O)CCC(=O)N(O)CCCCCNC(=O)CCC(=O)N(O)CCCCCNC(=O)C12CC3CC(C1)CC(c1ccc([N+](=O)[O-])cc1)(C3)C2,Active,Active,Active,Active,Active,Active,–,–,Active,Active,Active,Non-Toxic,Non-Toxic,Active,Active
1.9,Active,Active,0.91,CC(=O)N(O)CCCCCNC(=O)CCC(=O)N(O)CCCCCNC(=O)CCC(=O)N(O)CCCCCNC(=O)C12CC3CC(CC(Br)(C3)C1)C2,inactive,inactive,inactive,inactive,inactive,inactive,–,–,–,Active,–,Non-Toxic,Non-Toxic,inactive,inactive
1.16,Active,Active,0.27,CC(=O)N(O)CCCCCNC(=O)CCC(=O)N(O)CCCCCNC(=O)CCC(=O)N(O)CCCCCNC(=O)C[C@H]1C[C@H]2CC[C@H]1C2 (relative stereo),Active,Active,Active,Active,Active,Active,–,–,–,–,–,Non-Toxic,Non-Toxic,Active,Active
1.32,Active,Active,0.43,CC(=O)N(O)CCCCCNC(=O)CCC(=O)N(O)CCCCCNC(=O)CCC(=O)N(O)CCCCCNC(=O)C12CC3CC(CC(C3)C1)C2,Active,Active,Active,Active,Active,Active,–,Active,Active,Active,Active,Non-Toxic,Non-Toxic,Active,Active

SMILES,logP [1],Activity [15],Activity [16],Retention time [17] [min],Activity (SK-N-BE(2)-M17 [2]),Activity (SK-N-BE(2)-M17 [3]),Activity (SK-N-BE(2)-M17 [4]),Activity (SK-N-BE(2)-M17 [5]),Activity (SK-N-BE(2)-M17 [6]),Activity (SK-N-BE(2)-M17 [7]),EC50 (SK-N-BE(2)-M17 [8]) [µM],Activity (SK-N-BE(2)-M17 [9]),Activity (SK-N-BE(2)-M17 [10]),Activity (Astrocyte [11]),Activity (Astrocyte [12]),Activity (SK-N-BE(2)-M17 [13]),Activity (SK-N-BE(2)-M17 [14]),Activity (SK-N-BE(2)-M17 [18]),Activity (SK-N-BE(2)-M17 [19])
c1ccc2ccccc2c1,3.27,–,–,–,–,–,–,–,–,–,–,–,–,–,–,–,–,–,–
COC(=O)c1ccccc1C(=O)OC [DIMETHYL PHTHALATE],1.59,–,–,–,–,–,–,–,–,–,–,–,–,–,–,–,–,–,–
c1ccc2c(c1)oc1ccccc12 [DIBENZOFURAN],3.76,–,–,–,–,–,–,–,–,–,–,–,–,–,–,–,–,–,–

# — ChEMBL document CHEMBL4184139, “Adamantyl- and other polycyclic cage-based conjugates of desferrioxamine B (DFOB) for treating iron-mediated toxicity in cell models of Parkinson's disease” (Bioorg Med Chem Lett, 2017)
